Tests used:
[1] = target: T1, hP2X2R (Homo sapiens, UniProt Q9UBL9); assay: TEVC of ATP-induced currents, hP2X2R in X. laevis oocytes (steady-state protocol); format: cell-based
T1 construct: expressed in transfected cells; host or cells: Xenopus laevis oocytes (cRNA injection)
T1 sequence (Q9UBL9 1-471): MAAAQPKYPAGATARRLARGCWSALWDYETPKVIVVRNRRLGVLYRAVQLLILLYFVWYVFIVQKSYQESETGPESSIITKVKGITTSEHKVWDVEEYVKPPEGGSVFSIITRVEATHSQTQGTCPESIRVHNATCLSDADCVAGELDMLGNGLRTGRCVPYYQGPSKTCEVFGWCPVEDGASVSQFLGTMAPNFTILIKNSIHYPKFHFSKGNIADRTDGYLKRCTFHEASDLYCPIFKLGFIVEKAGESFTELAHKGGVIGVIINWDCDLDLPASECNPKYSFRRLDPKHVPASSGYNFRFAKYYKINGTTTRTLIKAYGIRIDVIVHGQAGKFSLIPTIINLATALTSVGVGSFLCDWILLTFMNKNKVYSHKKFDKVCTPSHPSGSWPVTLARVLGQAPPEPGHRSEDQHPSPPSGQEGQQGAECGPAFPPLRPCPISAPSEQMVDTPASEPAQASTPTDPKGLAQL
From the text: Oocyte expression plasmids encoding the wild-type (wt) and N-terminally His-tagged (His-) fusion constructs of the hP2X2R, hP2X3R, hP2X4R, and hP2X7R, and the mutant His-^20RMVL^23KVIV^23S^26N-hP2X1R, S^15V-rP2X3R, and His-S^15V-hP2X3R were the same as used in previous research ([Hausmann et al., 2006]; [Wolf et al., 2011]; [Hausmann et al., 2014]; [Obrecht et al., 2019]). In most cases, the N-terminal His-tagged variants of P2XRs were used here and in the previous studies to allow biochemical analyses on affinity-purified proteins using the same constructs. Although this was not required for the present study, it allows for better comparability with our previous studies. Capped cRNAs of different P2XRs were already available in the research group or were synthesized as previously described ([Schmalzing et al., 1991]; [Stolz et al., 2015]). cRNA was injected into collagenase-defolliculated X. laevis oocytes in aliquots of 41 nl or 23 nl (see Supplementary Table S1 for the amount of cRNA used for expression of the indicated P2XR) using a Nanoliter 2000 injector (World Precision Instruments, Sarasota, United States of America) as described previously ([Hausmann et al., 2014]; [Stolz et al., 2015]; [Obrecht et al., 2019]). To express the heteromeric hP2X2/3 receptor, cRNAs encoding His-hP2X2R and wt-hP2X3R were coinjected at a ratio (w/w) of 1:6. Oocytes were stored at 19°C in an oocyte ringer solution (ORi^+) containing 90 mM NaCl, 1 mM KCl, 1 mM CaCl2, 1 mM MgCl2, and 10 mM HEPES (Carl Roth, Karlsruhe, Germany) adjusted to pH 7.4 with NaOH and supplemented with 50 μg/ml gentamicin (AppliChem, Darmstadt, Germany). The procedures followed for the maintenance of and the surgical treatment for X. laevis adults were approved by the governmental animal care and use committee of the State Agency for Nature, Environment, and Consumer Protection (LANUV, Recklinghausen, Germany; reference no. 81-02.04.2019. A355), in compliance with Directive 2010/63/EU of the European Parliament and of the Council on the protection of animals used for scientific purpose.
Ion currents mediated by P2X receptors were evoked by the indicated concentration of ATP or α,β-meATP and were recorded 1 or 2 days after cRNA injection at ambient temperature at a holding potential of −60 mV by two-electrode voltage clamp (TEVC) as previously described ([Hausmann et al., 2006]). Calcium-free ORi^− solution (90 mM NaCl, 1 mM KCl, 2 mM MgCl2, 10 mM HEPES, pH 7.4) was used to avoid bias due to calcium-activated chloride channels (CaCC) endogenously expressed in X. laevis oocytes ([Miledi, 1982]; [Methfessel et al., 1986]). For recordings of wt-hP2X7R, the composition of the ORi^− solution was modified according to protocols described previously and contained 100 mM NaCl, 2.5 mM KCl, 1 mM MgCl2, 5 mM HEPES, pH 7.4 ([Klapperstück et al., 2000]). The oocytes were continuously superfused with ORi^− by gravity flow (5–10 ml/min). The agonists ATP or α,β-meATP and the investigated NSAIDs were diluted in ORi^− on the day of the recording. The following agonist concentrations were used for the different P2X subtypes: 1 μM ATP (hP2X1R mutant, hP2X3R, rP2X3R, S^15V-hP2X3R, and S^15V-rP2X3R); 10 μM ATP (hP2X2R and hP2X4R); 300 μM free ATP^4- (hP2X7R); and 1 μM α,β-meATP (hP2X2/3R). […]

[2] = target: T2, hP2X4R (Homo sapiens, UniProt Q99571); assay: TEVC of ATP-induced currents, hP2X4R in X. laevis oocytes (steady-state protocol); format: cell-based
T2 construct: expressed in transfected cells; host or cells: Xenopus laevis oocytes (cRNA injection)
T2 sequence (Q99571 1-388): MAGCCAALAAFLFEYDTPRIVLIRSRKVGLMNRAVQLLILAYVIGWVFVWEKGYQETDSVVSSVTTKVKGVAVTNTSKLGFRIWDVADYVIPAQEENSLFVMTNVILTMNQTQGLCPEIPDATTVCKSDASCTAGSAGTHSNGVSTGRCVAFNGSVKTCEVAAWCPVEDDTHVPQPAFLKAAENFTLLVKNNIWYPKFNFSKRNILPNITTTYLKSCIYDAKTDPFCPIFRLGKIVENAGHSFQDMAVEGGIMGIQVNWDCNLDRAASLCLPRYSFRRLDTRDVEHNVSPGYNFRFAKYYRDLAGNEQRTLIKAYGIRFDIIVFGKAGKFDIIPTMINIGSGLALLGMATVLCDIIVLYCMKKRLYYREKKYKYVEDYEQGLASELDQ
From the text: Oocyte expression plasmids encoding the wild-type (wt) and N-terminally His-tagged (His-) fusion constructs of the hP2X2R, hP2X3R, hP2X4R, and hP2X7R, and the mutant His-^20RMVL^23KVIV^23S^26N-hP2X1R, S^15V-rP2X3R, and His-S^15V-hP2X3R were the same as used in previous research ([Hausmann et al., 2006]; [Wolf et al., 2011]; [Hausmann et al., 2014]; [Obrecht et al., 2019]). In most cases, the N-terminal His-tagged variants of P2XRs were used here and in the previous studies to allow biochemical analyses on affinity-purified proteins using the same constructs. Although this was not required for the present study, it allows for better comparability with our previous studies. […]
Ion currents mediated by P2X receptors were evoked by the indicated concentration of ATP or α,β-meATP and were recorded 1 or 2 days after cRNA injection at ambient temperature at a holding potential of −60 mV by two-electrode voltage clamp (TEVC) as previously described ([Hausmann et al., 2006]). […]

[3] = cited from earlier work

SMILES | increase in hP2X2R current amplitude (potentiation) on co-application with ATP ([1]; 10 µM ATP, compared to steady-state current in absence of the drug) | IC50 ([1]; 10 µM ATP, steady-state protocol, * no inhibition, but potentiation) | Max. inhibition at 1 mM ([1]; 10 µM ATP, * no inhibition, but potentiation) | agonist effect (current induced in the absence of ATP) ([1]; 100 µM diclofenac, 300 µM FFA, absence of ATP) | IC50 ([2]; 10 µM ATP, steady-state protocol, X. laevis oocytes) | inhibition at 1000 µM ([2]; read-out: Max. inhibition at 1 mM) | suspected cases of ageusia, dysgeusia, or taste disorders reported in the European Union ([3]; EudraVigilance up to 28/11/2022, ref http://www.adrreports.eu/de/) | patients reporting an impaired taste sensation ([3]; prospective randomized clinical trial, postoperative administration, ref Attri et al., 2015) | EC50 ([1]; 10 µM ATP, concentration–response curve, read-out: half-maximal potentiation value)
O=C(O)Cc1ccccc1Nc1c(Cl)cccc1Cl [Diclofenac, diclofenac] | 1.7 fold | no inh.* | no inh.* | Neither 100 µM diclofenac nor 300 µM FFA induced current | 1110 µM | 61.2% | more than 110 cases | 58% | 
O=C(O)c1ccccc1Nc1cccc(C(F)(F)F)c1 [Flufenamic acid, flufenamic acid] |  |  |  |  |  |  |  |  | 158 µM
